Patent US10227356B2, “Compounds, compositions and methods for inhibiting CNKSR1” (Phusis Therapeutics, Inc., priority 2015, dated 2019)

Target: T1, PLEKHA7 PH-domain (Homo sapiens, UniProt Q6IQ23)
T1 construct: The plekstrin homology domain of CNK and PLEKHA7 expressed with GST at the N-terminus; made in house
T1 sequence (Q6IQ23 164-282 limits assumed): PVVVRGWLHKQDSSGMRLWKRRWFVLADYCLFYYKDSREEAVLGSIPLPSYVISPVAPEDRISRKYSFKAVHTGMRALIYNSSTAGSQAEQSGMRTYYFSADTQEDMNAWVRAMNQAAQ
Assay: Surface plasmon resonance binding to PLEKHA7 PH-domain
Conditions: SPR; read-out: PLEK KD
Procedure: The plekstrin homology domain of CNK and PLEKHA7 expressed with GST at the N-terminus, CNK(PH)-GST were immobilized on a CM5 chip. Analysis of potential small molecule drug binding was done using a Biacore T200. Immobilization of antibody was run at 37° C. and a flow rate of 5 μL/min. A freshly prepared mixture of aqueous 0.4M 1-ethyl-3-(3-dimethylaminopropyl)carbodiimide hydrochloride (EDC) and aqueous 0.1M N-hydroxysuccinamide (NETS), (0.2M/0.05M EDC/NHS solution) is injected for 480 seconds over a conditioned (Tanious, et al doi:10.1016/50091-679X(07)84003-9) CM5 chip flow cell. The activated surface is then injected at 37° C., flow rate of 5 μL/min for 480 sec with 30 μg/mL anti-GST antibody, freshly suspended in pH 5.0 10 mM acetate buffer. Expected capture is 12000-20000 response units (RU). The remaining active surface is deactivated with 480 sec injections of 0.1M ethylenediamine in borate buffer (GE Healthcare) and then 1M ethanolamine pH 8.5 to provide 10000-18000 RU of covalently linked antibody on the flow cell. An upstream reference flow cell (Fc1) and a downstream working flow cell (Fc2) are prepared in this manner. […] Binding responses were determined 4 seconds prior to the conclusion of the injection. […]

CCOC(=O)/C=C/c1cc(NS(=O)(=O)c2cccs2)c2c(c1O)OCO2 [Compound 88, (E)-ethyl 3-(4-hydroxy-7-(thiophene-2-sulfonamido)benzo[d][1,3]dioxol-5-yl)acrylate]
Kd: 261 µM
